Data reported in PubChem BioAssay AID1963853 (Molecular Pharmacology Branch, DTP, NCI, 2024).
pIC50: −log10 of the molar value.

Test system: 266295-075-R-J1-PDC spheroid viability
Assay: Anticancer human tumor 266295-075-R-J1-PDC patient-derived head and neck squamous carcinoma cell line growth inhibition [POLQ]
Settings: spheroids with HUVEC and MSC; for pIC50: curve of first compound; for viability, T/C: stronger effect = lower value
Procedure, shortened: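 Complex spheroid viability model combining PDC tumour cells with endothelial (HUVEC) and MSC stromal cells. Novobiocin, ART-558 or RP6685 were tested singly and in combination with standard and investigational anticancer drugs. Each was titrated in half-log steps from near clinical Cmax, or from 10 microM where Cmax was unknown.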

[1] = second compound 0.0316 µM, first compound 0.0316 µM
[2] = second compound 0.0316 µM, first compound 0.1 µM
[3] = second compound 0.1 µM, first compound 0.0316 µM
[4] = second compound 0.1 µM, first compound 0.1 µM
[5] = second compound 0.316 µM, first compound 0.0316 µM
[6] = second compound 0.316 µM, first compound 0.1 µM
[7] = second compound 1 µM, first compound 0.0316 µM
[8] = second compound 1 µM, first compound 0.1 µM
[9] = second compound 3.16 µM, first compound 0.0316 µM
[10] = second compound 3.16 µM, first compound 0.1 µM
[11] = second compound 10 µM, first compound 0.0316 µM
[12] = second compound 10 µM, first compound 0.1 µM
[13] = second compound 0.0316 µM, first compound 0.316 µM
[14] = second compound 0.0316 µM, first compound 1 µM
[15] = second compound 0.0316 µM, first compound 3.16 µM
[16] = second compound 0.0316 µM, first compound 10 µM
[17] = second compound 0.1 µM, first compound 0.316 µM
[18] = second compound 0.1 µM, first compound 1 µM
[19] = second compound 0.1 µM, first compound 3.16 µM
[20] = second compound 0.1 µM, first compound 10 µM
[21] = second compound 0.316 µM, first compound 0.316 µM
[22] = second compound 0.316 µM, first compound 1 µM
[23] = second compound 0.316 µM, first compound 3.16 µM
[24] = second compound 0.316 µM, first compound 10 µM
[25] = second compound 1 µM, first compound 0.316 µM
[26] = second compound 1 µM, first compound 1 µM
[27] = second compound 1 µM, first compound 3.16 µM
[28] = second compound 1 µM, first compound 10 µM
[29] = second compound 3.16 µM, first compound 0.316 µM
[30] = second compound 3.16 µM, first compound 1 µM
[31] = second compound 3.16 µM, first compound 3.16 µM
[32] = second compound 3.16 µM, first compound 10 µM
[33] = second compound 10 µM, first compound 0.316 µM
[34] = second compound 10 µM, first compound 1 µM
[35] = second compound 10 µM, first compound 3.16 µM
[36] = second compound 10 µM, first compound 10 µM
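Also: spheroids exposed to compounds for seven days before readout.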

## CC[C@@]1(O)C(=O)OCc2c1cc1n(c2=O)Cc2cc3c(CN(C)C)c(O)ccc3nc2-1 + Nc1ccc(C#CCN(C(=O)Cc2ncc(C(F)(F)F)cc2C(F)(F)F)c2ccc(F)cc2)nn1
Second compound 0.0316 µM
  pIC50: < 7.00
Second compound 0.1 µM
  pIC50: < 7.00
Second compound 0.316 µM
  pIC50: < 7.00
Second compound 1 µM
  pIC50: < 7.00
Second compound 3.16 µM
  pIC50: < 7.00
Second compound 10 µM
  pIC50: < 7.00
Second compound 0.0316 µM, first compound 0.000316 µM
  viability, T/C: 98.9%
Second compound 0.0316 µM, first compound 0.001 µM
  viability, T/C: 105%
Second compound 0.0316 µM, first compound 0.00316 µM
  viability, T/C: 105%
Second compound 0.0316 µM, first compound 0.01 µM
  viability, T/C: 95.1%
[1]
  viability, T/C: 84%
[2]
  viability, T/C: 91.8%
Second compound 0.1 µM, first compound 0.000316 µM
  viability, T/C: 105%
Second compound 0.1 µM, first compound 0.001 µM
  viability, T/C: 110%
Second compound 0.1 µM, first compound 0.00316 µM
  viability, T/C: 97.5%
Second compound 0.1 µM, first compound 0.01 µM
  viability, T/C: 92.1%
[3]
  viability, T/C: 116%
[4]
  viability, T/C: 114%
Second compound 0.316 µM, first compound 0.000316 µM
  viability, T/C: 101%
Second compound 0.316 µM, first compound 0.001 µM
  viability, T/C: 93.8%
Second compound 0.316 µM, first compound 0.00316 µM
  viability, T/C: 103%
Second compound 0.316 µM, first compound 0.01 µM
  viability, T/C: 107%
[5]
  viability, T/C: 116%
[6]
  viability, T/C: 69.2%
Second compound 1 µM, first compound 0.000316 µM
  viability, T/C: 91.2%
Second compound 1 µM, first compound 0.001 µM
  viability, T/C: 97.2%
Second compound 1 µM, first compound 0.00316 µM
  viability, T/C: 75.7%
Second compound 1 µM, first compound 0.01 µM
  viability, T/C: 102%
[7]
  viability, T/C: 98.7%
[8]
  viability, T/C: 74.3%
Second compound 3.16 µM, first compound 0.000316 µM
  viability, T/C: 97.3%
Second compound 3.16 µM, first compound 0.001 µM
  viability, T/C: 101%
Second compound 3.16 µM, first compound 0.00316 µM
  viability, T/C: 82.5%
Second compound 3.16 µM, first compound 0.01 µM
  viability, T/C: 83.2%
[9]
  viability, T/C: 99.5%
[10]
  viability, T/C: 88.6%
Second compound 10 µM, first compound 0.000316 µM
  viability, T/C: 97.2%
Second compound 10 µM, first compound 0.001 µM
  viability, T/C: 92.2%
Second compound 10 µM, first compound 0.00316 µM
  viability, T/C: 119%
Second compound 10 µM, first compound 0.01 µM
  viability, T/C: 85.7%
[11]
  viability, T/C: 94.4%
[12]
  viability, T/C: 87.8%

## COc1cc(C2c3cc4c(cc3C(OC3OC5COC(C)OC5C(O)C3O)C3COC(=O)C23)OCO4)cc(OC)c1O (stereo unspecified) + Nc1ccc(C#CCN(C(=O)Cc2ncc(C(F)(F)F)cc2C(F)(F)F)c2ccc(F)cc2)nn1
Second compound 0.0316 µM
  pIC50: < 5.00
Second compound 0.1 µM
  pIC50: < 5.00
Second compound 0.316 µM
  pIC50: < 5.00
Second compound 1 µM
  pIC50: < 5.00
Second compound 3.16 µM
  pIC50: < 5.00
Second compound 10 µM
  pIC50: < 5.00
[1]
  viability, T/C: 81.1%
[2]
  viability, T/C: 103%
[13]
  viability, T/C: 77.6%
[14]
  viability, T/C: 94.4%
[15]
  viability, T/C: 98.9%
[16]
  viability, T/C: 82.8%
[3]
  viability, T/C: 84.1%
[4]
  viability, T/C: 97%
[17]
  viability, T/C: 103%
[18]
  viability, T/C: 97.4%
[19]
  viability, T/C: 111%
[20]
  viability, T/C: 80.1%
[5]
  viability, T/C: 97%
[6]
  viability, T/C: 127%
[21]
  viability, T/C: 82.2%
[22]
  viability, T/C: 90.7%
[23]
  viability, T/C: 94.9%
[24]
  viability, T/C: 90.6%
[7]
  viability, T/C: 104%
[8]
  viability, T/C: 94.1%
[25]
  viability, T/C: 92.3%
[26]
  viability, T/C: 96.4%
[27]
  viability, T/C: 92.3%
[28]
  viability, T/C: 88.8%
[9]
  viability, T/C: 75.9%
[10]
  viability, T/C: 118%
[29]
  viability, T/C: 84.8%
[30]
  viability, T/C: 93.2%
[31]
  viability, T/C: 107%
[32]
  viability, T/C: 90.5%
[11]
  viability, T/C: 90.8%
[12]
  viability, T/C: 92.9%
[33]
  viability, T/C: 95.2%
[34]
  viability, T/C: 81.2%
[35]
  viability, T/C: 95.8%
[36]
  viability, T/C: 77.1%

## Nc1ccn(C2OC(CO)C(O)C2(F)F)c(=O)n1 (stereo unspecified) + Nc1ccc(C#CCN(C(=O)Cc2ncc(C(F)(F)F)cc2C(F)(F)F)c2ccc(F)cc2)nn1
Second compound 0.0316 µM
  pIC50: < 5.00
Second compound 0.1 µM
  pIC50: < 5.00
Second compound 0.316 µM
  pIC50: < 5.00
Second compound 1 µM
  pIC50: < 5.00
Second compound 3.16 µM
  pIC50: < 5.00
Second compound 10 µM
  pIC50: < 5.00
[1]
  viability, T/C: 100%
[2]
  viability, T/C: 106%
[13]
  viability, T/C: 81.6%
[14]
  viability, T/C: 77%
[15]
  viability, T/C: 93.7%
[16]
  viability, T/C: 85.3%
[3]
  viability, T/C: 112%
[4]
  viability, T/C: 98.8%
[17]
  viability, T/C: 72.6%
[18]
  viability, T/C: 96.5%
[19]
  viability, T/C: 92.1%
[20]
  viability, T/C: 80.4%
[5]
  viability, T/C: 105%
[6]
  viability, T/C: 88%
[21]
  viability, T/C: 78.5%
[22]
  viability, T/C: 94.8%
[23]
  viability, T/C: 95.7%
[24]
  viability, T/C: 82%
[7]
  viability, T/C: 105%
[8]
  viability, T/C: 82.9%
[25]
  viability, T/C: 92%
[26]
  viability, T/C: 101%
[27]
  viability, T/C: 94.3%
[28]
  viability, T/C: 82.5%
[9]
  viability, T/C: 124%
[10]
  viability, T/C: 94.2%
[29]
  viability, T/C: 90.5%
[30]
  viability, T/C: 95.1%
[31]
  viability, T/C: 83.7%
[32]
  viability, T/C: 75.7%
[11]
  viability, T/C: 93.2%
[12]
  viability, T/C: 101%
[33]
  viability, T/C: 82.8%
[34]
  viability, T/C: 89.7%
[35]
  viability, T/C: 75.5%
[36]
  viability, T/C: 72.2%
